{"source": "patent US9993447B2", "about": "“Systems and methods for increasing agmatine cellular uptake by oral administration” (priority 2015, dated 2018)", "key": {"[1]": {"conditions": "oral, with high-intensity periodized resistance training; cited from earlier work"}, "pH of buffer media": {"test": "pH of buffer media", "format": "physicochemical", "conditions": "room temperature", "source_text": "Crea-Trona® is also known as buffered creatine. During the fabrication process, AlzChem uses a double buffer from sodium carbonate and sodium bi-carbonate, both natural minerals, which creates an alkaline environment with a pH value between 8 and 12. Crea-Trona is more efficient than other types of creatine, including those with an alkaline pH-buffer (kre-alkalynes). The double buffer prevents the pH-value in the muscles from dropping rapidly during the workout. This may lead to a larger training volume and may stimulate faster recovery of the original pH-value after the workout.\nTo maximize the benefits of oral administration of agmatine salts according to embodiments of the present disclosure, a buffer media may be used in formulations, or a stable mono-protonated or neutral form of such agmatine salts should be administered instead. As reflected in the formulations described above according to embodiments of the present disclosure, different buffer media have been used including Crea-Trona (such as that offered by AlzChem), arginine base, as well as Effer-Soda (such as that offered by SPI Pharma). However, it should be appreciated that other buffer media, such as potassium carbonate or potassium bicarbonate, may be utilized without departing from the present disclosure. Such buffer media may elevate the pH of the formulation. […]"}, "[2]": {"conditions": "approximately 150 g over three days, oral; cited from earlier work"}, "[3]": {"conditions": "300 mg daily for 6 weeks, young healthy trained athletes; cited from earlier work"}, "[4]": {"test": "pH of 1% agmatine salt solutions in purified water at room temperature", "format": "physicochemical", "conditions": "1% in purified water", "source_text": "Compounds and formulations according to embodiments of the present disclosure may provide a method to increase cellular uptake of agmatine in an animal or human. It should be appreciated that agmatine uptake may increase dramatically with increasing pH, and protonation of the amino group of agmatine is dependent on pH. The guanidinium group in agmatine has a pH of about 12.5 in aqueous solution while the amino group in agmatine has a pH of about 9. At the physiological pH, agmatine may be protonated and thus, requires transporters for uptake into the cells to occur. The fraction of the molecules having a single positive charge may increase as pH increases. […] This is reflected in FIGS. 1 and 2."}, "[5]": {"test": "Titration of 1% agmatine salt solutions with 5% aqueous arginine base", "format": "physicochemical", "conditions": "1% solution titrated with 5% arginine base, room temperature", "method": "FIG. 2 depicts a graphical representation of 1% agmatine salt solutions in a titration with an 5% aqueous arginine base solution at room temperature according to an embodiment of the present disclosure;\n(§1) The pH dependence has been evaluated in acidic as well as basic conditions. […] About 15 mL of 0.1N HCl may be used to lower the pH of agmatine phosphate at around 3 while other agmatine salts, at the same concentration and in the same measuring conditions, required approximately 2-4 mL to change to an acidic pH. The same kind of behavior was observed when solutions of agmatine salts were titrated with a solution of agmatine base. About 20 mL were required to make the pH alkaline (above 8) in the case of agmatine phosphate, while other agmatine salts required approximately 2-3 mL to achieve the same pH range. Taking these observations into consideration along with the fact that better uptake of agmatine is observed at a higher pH, it should be appreciated that agmatine dihydrochloride and agmatine phosphate may be more desirable agmatine salts than agmatine sulfate for improving bioavailability of orally administered agmatine."}, "[6]": {"test": "Titration of 1% agmatine salt solutions with aqueous 0.1N HCl", "format": "physicochemical", "conditions": "1% solution titrated with 0.1N HCl", "method": "FIG. 1 depicts a graphical representation of 1% agmatine salt solutions in a titration with an aqueous 0.1N HCl solution according to an embodiment of the present disclosure;\nas §1"}, "rat": {"test_system": "rat", "conditions": "rat experimental model; cited from earlier work"}, "[7]": {"conditions": "cited from earlier work"}, "[8]": {"conditions": "concentration of 1 mM; cited from earlier work"}, "[9]": {"conditions": "prior intake, trained young men; cited from earlier work"}}, "data": [{"smiles": "Nc1ncnc2c1ncn2[C@@H]1O[C@H](COP(=O)(O)OP(=O)(O)OP(=O)(O)O)[C@@H](O)[C@H]1O", "note": "[ATP, adenosine triphosphate]", "values": [{"measurement": "Muscle mass, strength, and power compared with placebo-matched control", "setting": "[1]", "result": "increases muscle mass, strength, and power"}]}, {"smiles": "N=C(N)NCCC[C@H](N)C(=O)O", "note": "[Arginine base, arginine]", "values": [{"measurement": "pH of arginine base in solution", "setting": "pH of buffer media", "result": "around 10"}]}, {"smiles": "O=C[C@H](O)[C@H](O)[C@H](O)CO", "note": "[D-ribose]", "values": [{"measurement": "Rate of ATP replenishment over three days of rest compared to placebo sugar (maltodextrin)", "setting": "[2]", "result": "greater"}]}, {"smiles": "COc1c(O)c(C)c(C/C=C(\\C)CC/C=C(\\C)CC/C=C(\\C)CC/C=C(\\C)CC/C=C(\\C)CC/C=C(\\C)CC/C=C(\\C)CC/C=C(\\C)CC/C=C(\\C)CCC=C(C)C)c(O)c1OC", "note": "[Ubiquinol, ubiquinol]", "values": [{"measurement": "Maximum power output versus placebo", "setting": "[3]", "result": "+0.08 W/kg bw"}, {"measurement": "Maximum power output versus placebo, relative change", "setting": "[3]", "result": "+2.5%"}]}, {"smiles": "Cl.Cl.N=C(N)NCCCCN", "note": "[agmatine dihydrochloride]", "values": [{"measurement": "pH of 1% agmatine salt solution", "setting": "[4]", "result": 6.4}]}, {"smiles": "N=C(N)NCCCCN.O=P(O)(O)O", "note": "[agmatine phosphate]", "values": [{"measurement": "Volume of base solution required to make the pH alkaline (above 8)", "setting": "[5]", "result": "About 20 mL"}, {"measurement": "Volume of 0.1N HCl used to lower the pH to around 3 (acidic pH)", "setting": "[6]", "result": "About 15 mL"}, {"measurement": "pH of 1% agmatine salt solution", "setting": "[4]", "result": 5.7}]}, {"smiles": "N=C(N)NCCCCN.O=S(=O)(O)O", "note": "[agmatine sulfate, reference compound]", "values": [{"measurement": "pH of 1% agmatine salt solution", "setting": "[4]", "result": 4.8}]}, {"smiles": "N=C(N)NCCCCN", "note": "[agmatine, (4-aminobutyl)guanidine]", "values": [{"measurement": "Lethal dose", "setting": "rat", "result": "1 to 10", "unit": "mg/kg"}, {"measurement": "pKa value of the guanadino group", "setting": "[7]", "result": 12.5}, {"measurement": "Cytotoxic effects", "setting": "[8]", "result": "no cytotoxic effects"}]}, {"smiles": "O=C([O-])O.[Na+]", "note": "[sodium bicarbonate]", "values": [{"measurement": "High-intensity intermittent exercise performance", "setting": "[9]", "result": "improved"}]}]}
